# From patent US20150203474A1, “SOLID FORMS COMPRISING INHIBITORS OF HCV NS5A, COMPOSITIONS THEREOF, AND USES THEREWITH” (PRESIDIO PHARMACEUTICALS ,INC., priority 2012, published 2015)
# Read-outs that look alike come from different tables or passages of the source.
# How the values were obtained:
# [1] = Solubility of Form I and free base compound 4-3 (visual and HPLC assay of filtrate); format: physicochemical; details: for pH (Filtrated): filtrate of solubility sample; for HPLC Solubility / Visual Solubility (observation in words) / solubility at 24 h: target conc. 2.0 mg/mL; for HPLC Solubility / solubility at 24 h: 24 hours ambient, 0.45-μm filtrate; for solubility at 24 h: thermodynamic from solid, read-out: HPLC Solubility
# Protocol: Solubility of Form I as well as the free base compound 4-3 was tested. Solubility was measured by placing a small quantity of the compound to be analyzed in a glass vial, capping and rotating the vial overnight at ambient conditions (24 hours). Target concentration was 2.0 mg/mL. The samples were filtrated with 0.45-μm filters. The subsequent filtrate was collected for HPLC assay. HPLC conditions are shown in Table 10 in Appendix A. Solubility for Form I is shown in Table 11 and for the free base compound 4-3 is shown in Table 12 in Appendix A. [table]
# HCV genotype 3a replicon = test: HCV replicon assay, GT 3a (luciferase readout); format: cell-based; details: Hepatitis C virus; GT 3a replicon; n > 3
# Protocol: (§1) Biological activity of the compounds of the invention was determined using an HCV replicon assay. The 1b_Huh-Luc/Neo-ET cell line persistently expressing a bi-cistronic genotype 1b replicon in Huh 7 cells was obtained from ReBLikon GMBH. This cell line was used to test compound inhibition using luciferase enzyme activity readout as a measurement of compound inhibition of replicon levels.
# (§2) On Day 1 (the day after plating), each compound was added in triplicate to the cells. Plates incubated for 72 hrs prior to running the luciferase assay. Enzyme activity was measured using a Bright-Glo Kit (cat. number E2620) manufactured by Promega Corporation. The following equation was used to generate a percent control value for each compound.
# (§3) % Control=(Average Compound Value/Average Control)*100
# (§4) The EC50 value was determined using GraphPad Prism and the following equation:
# (§5) Y=Bottom+(Top−Bottom)/(1+10̂((LogIC50−X)*HillSlope))
# (§6) EC50 values of compounds are repeated several times in the replicon assay.
# (§7) The disclosed compounds can inhibit multiple genotypes of HCV including, but not limited to 1a, 1b, 2a, 3a, 4a and 5a. The EC50s are measured in the corresponding replicon assays that are similar to HCV 1b replicon assay as described above.
# HCV genotype 1a replicon = test: HCV replicon assay, GT 1a (luciferase readout); format: cell-based; details: Hepatitis C virus; GT 1a replicon; n > 3
# Protocol: as §1, §2, §3, §4, §5, §6, §7
# HCV genotype 2a replicon = test: HCV replicon assay, GT 2a (luciferase readout); format: cell-based; details: Hepatitis C virus; GT 2a replicon; n > 3
# Protocol: as §1, §2, §3, §4, §5, §6, §7
# HCV genotype 4a replicon = test: HCV replicon assay, GT 4a (luciferase readout); format: cell-based; details: Hepatitis C virus; GT 4a replicon; n > 3
# Protocol: as §1, §2, §3, §4, §5, §6, §7
# HCV genotype 5a replicon = test: HCV replicon assay, GT 5a (luciferase readout); format: cell-based; details: Hepatitis C virus; GT 5a replicon; n > 3
# Protocol: as §1, §2, §3, §4, §5, §6, §7
# [2] = tested on: bi-cistronic genotype 1b replicon in Huh 7 cells (1b_Huh-Luc/Neo-ET cell line); test: HCV replicon assay, GT 1b (luciferase readout); format: cell-based; details: Hepatitis C virus, GT 1b replicon, n > 3
# Protocol: as §1, §2, §3, §4, §5, §6
# [3] = Moisture sorption profile (DVS) of Compound II Form I and amorphous Compound II; format: physicochemical; details: DVS at 25° C.
# Protocol: The moisture sorption profile was generated of the sample as well as of a sample of amorphous Compound II at 25° C. using a DVS Moisture Balance Flow System (Model Advantage) with the following conditions: sample size approximately 10 mg, drying 25° C. for 60 minutes, adsorption range 0% to 95% RH, desorption range 95% to 0% RH, and step interval 5%. The equilibrium criterion was <0.01% weight change in 5 minutes for a maximum of 120 minutes.
smiles,measurement,setting,value
CC[C@H](C)[C@H](NC(=O)OC)C(=O)N1CCC[C@H]1c1nc2ccc(-c3ccc4cc(-c5cnc([C@@H]6CCCN6C(=O)[C@@H](NC(=O)OC)[C@@H](C)OC)[nH]5)ccc4c3)cc2[nH]1 [compound 4-3],pH (Filtrated),[1]; 0.1N HCl,1.09
same,HPLC Solubility,[1]; 0.1N HCl,2066 µg/mL
same,pH (Filtrated),[1]; Water,8.83
same,Visual Solubility (observation in words),[1]; Water,Turbid +
same,HPLC Solubility,[1]; Water,<1 µg/mL
same,pH (Filtrated),[1]; pH 2 medium,2.17
same,HPLC Solubility,[1]; pH 2 medium,2056 µg/mL
same,pH (Filtrated),[1]; pH 3 medium,3.59
same,Visual Solubility (observation in words),[1]; pH 3 medium,A few
same,HPLC Solubility,[1]; pH 3 medium,1763 µg/mL
same,pH (Filtrated),[1]; pH 4 medium,4.72
same,Visual Solubility (observation in words),[1]; pH 4 medium,Turbid +
same,HPLC Solubility,[1]; pH 4 medium,11 µg/mL
same,pH (Filtrated),[1]; pH 5 medium,5.27
same,HPLC Solubility,[1]; pH 5 medium,1 µg/mL
same,solubility at 24 h,"[1]; pH 6 medium, pH 6, aqueous buffer, pH 6 medium",< 1 µg/mL
same,pH (Filtrated),[1]; pH 6 medium,6.04
same,Visual Solubility (observation in words),[1]; pH 6 medium,Turbid +
same,solubility at 24 h,"[1]; pH 7 medium, pH 7, aqueous buffer, pH 7 medium",< 1 µg/mL
same,pH (Filtrated),[1]; pH 7 medium,7.00
same,Visual Solubility (observation in words),[1]; pH 7 medium,Turbid +
same,solubility at 24 h,"[1]; pH 8 medium, pH 8, aqueous buffer, pH 8 medium",< 1 µg/mL
same,pH (Filtrated),[1]; pH 8 medium,7.91
same,Visual Solubility (observation in words),[1]; pH 8 medium,Turbid +
CC[C@H](C)[C@H](NC(=O)OC)C(=O)N1CCC[C@H]1c1nc2ccc(-c3ccc4cc(-c5cnc([C@@H]6CCCN6C(=O)[C@@H](NC(=O)OC)[C@@H](C)OC)[nH]5)ccc4c3)cc2[nH]1 [Compound II],EC50,HCV genotype 3a replicon,0.4 nM
same,EC50,HCV genotype 1a replicon,0.07 nM
same,EC50,HCV genotype 2a replicon,0.11 nM
same,EC50,HCV genotype 4a replicon,0.04 nM
same,EC50,HCV genotype 5a replicon,0.04 nM
same,EC50,[2],0.01 nM
COC(=O)N[C@H](C(=O)N1CCC[C@H]1c1ncc(-c2ccc3cc(-c4ccc5nc([C@@H]6CCCN6C(=O)[C@@H](NC(=O)OC)C(C)C)[nH]c5c4)ccc3c2)[nH]1)C(C)C [Compound I],EC50,HCV genotype 3a replicon,1.26 nM
same,EC50,HCV genotype 1a replicon,0.135 nM
same,EC50,HCV genotype 2a replicon,0.139 nM
same,EC50,HCV genotype 4a replicon,0.052 nM
same,EC50,HCV genotype 5a replicon,0.039 nM
same,EC50,[2],0.016 nM
CC[C@H](C)[C@H](NC(=O)OC)C(=O)N1CCC[C@H]1c1nc2ccc(-c3ccc4cc(-c5cnc([C@@H]6CCCN6C(=O)[C@@H](NC(=O)OC)[C@@H](C)OC)[nH]5)ccc4c3)cc2[nH]1 [amorphous Compound II],weight percentage change (water uptake) from 0-75% RH,[3],13.57%
